According to US20180251495A1, “Skin-Penetrating Peptides and Compositions and Methods of Use Thereof” (The Regents of the University of California, priority 2015, published 2018):
Where two headings read alike, the source gives them in different places. Each block holds one molecule with its values, some of them ahead of it. Where a SMILES comes first, the peptide text is derived from it. Bridges are numbered along the chain shown (N, C = ends). Where no end group is shown, it is not given here.

Tests used:
[1] = tested on: HEKa cells (human adult epidermal keratinocytes); assay: MTT cytotoxicity assessment in keratinocytes; assay type: cell-based; settings: overnight incubation, MTT
Experimental: (§1) HEKa cells were cultured in 1× keratinocyte Serum-Free Medium supplemented with 25 U/mL penicillin, 25 μg/mL streptomycin, and 50 μg/mL neomycin. Cultures were grown at 37° C. with 5% CO2. The cytotoxicity of SPPs was assessed using the MTT Cell Proliferation Assay (ATCC, Manassas, Va.). HEKa cells were seeded in 96-well microplates (Corning Inc., Corning, N.Y.) at a density of 5000 cells/well. Cultures were allowed to grow until they reached ˜80% confluency. Cells were then incubated with 200 μL of 10, 5, or 2.5 mg/mL of selected SPPs in media. The pH was adjusted to afford complete dissolution of peptides. Media only was used as a negative control, and media or SPP formulations without cells was used to subtract background. Cytotoxicity was assessed after overnight incubation. Viability was determined according to the manufacturer's recommended protocol using a SAFIRE, XFLUOR4, V4.50 microplate reader (Tecan Group Ltd, Morrisville, N.Y.).
(§2) To assess the potential for skin toxicity, SPPs were incubated with HEKa cells overnight and % viability was determined. HEKa cells were used since keratinocytes are the primary cell-type in the skin, and therefore, represent a good estimate of the potential for skin irritation.

[2] = In vitro skin permeation of radiolabelled SPPs in Franz diffusion cells; assay type: in vitro ADME, porcine
Experimental: Test formulations were loaded and incubated as described.
The skin penetrating ability of the selected heptamer (SP7-1 through SP7-5) SPPs was evaluated in comparison with SPACE™. […] Radiolabelled peptides were loaded on Franz diffusion cells (FDCs) and incubated at 37° C. with moderate stirring. After 24 hours, the various skin layers were harvested, dissolved and analyzed using a scintillation counter to determine the amount of peptide.

[3] = for solubility in PBS: PBS pH 8.0
[4] = MTT cytotoxicity assessment in keratinocytes; assay type: cell-based, human; settings: human, HEKa cells (adult epidermal keratinocytes); HEKa cells exposed to 5 mg/mL peptide in solution
Experimental: as §1, §2

[5] = target: human keratin (human); assay: batch adsorption isotherm (affinity chromatography): peptide coupled to Toyopearl AF-Epoxy-650 resin, human keratin in PBS pH 7.4 in solution, Langmuir fit
[6] = target: human keratin (human); assay: batch affinity chromatography, peptide on Toyopearl resin, human keratin in solution, Langmuir fit
[7] = peptide amount after 24 hours, 37° C.

Molecule: C[C@H](N)C(=O)N[C@H]1CSSC[C@@H](C(=O)NCC(=O)O)NC(=O)[C@H](CC(N)=O)NC(=O)[C@H](CCCNC(=N)N)NC(=O)CNC(=O)[C@H]([C@@H](C)O)NC(=O)[C@H](Cc2c[nH]cn2)NC(=O)[C@H]([C@@H](C)O)NC1=O [SP6-1, ACTHTGRNCG] (H-ACTHTGRNCG-OH; disulfide 2-9; N-terminus and C-terminus assumed)
toxicity to HEKa cells [1]: no observable toxicity
toxicity to HEKa cells ([1]; listed as hexamer): non-toxic at concentrations as high as 10 mg/mL

Molecule: CC(C)C[C@@H]1NC(=O)[C@@H](NC(=O)[C@H](C)N)CSSC[C@@H](C(=O)NCC(=O)O)NC(=O)[C@H](C)NC(=O)[C@H](CC(N)=O)NC(=O)[C@H](Cc2c[nH]cn2)NC(=O)[C@H](CC(N)=O)NC(=O)[C@H](C(C)C)NC(=O)[C@H](CO)NC1=O [SP7-3, ACLSVNHNACG] (H-ACLSVNHNACG-OH; disulfide 2-10; N-terminus and C-terminus assumed)
Skin permeation, Dermis [2, 7]: 39.5 ± 25.4 μg/cm^2
Skin permeation, Receptor [2, 7]: 16.9 ± 11.3 μg/cm^2
Skin permeation, SC + Epidermis [2, 7]: 759.9 ± 73.4 μg/cm^2
solubility in presence of CsA ([3]; in presence of CsA): could not be fully solubilized
toxicity to HEKa cells [1]: significantly toxic (p <0.001) at only 1 mg/mL

Molecule: C[C@H](N)C(=O)N[C@H]1CSSC[C@@H](C(=O)NCC(=O)O)NC(=O)[C@H]([C@@H](C)O)NC(=O)[C@H](CO)NC(=O)[C@H](CCCNC(=N)N)NC(=O)[C@H](C)NC(=O)[C@H](CCC(N)=O)NC(=O)[C@H](Cc2c[nH]cn2)NC(=O)[C@H](C)NC(=O)[C@H](CC(N)=O)NC1=O [SP8-1, ACNAHQARSTCG] (H-ACNAHQARSTCG-OH; disulfide 2-11; N-terminus and C-terminus assumed)
toxicity to HEKa cells [1]: no observable toxicity
toxicity to HEKa cells ([1]; listed as octamer): non-toxic at concentrations as high as 10 mg/mL

Molecule: C[C@H](N)C(=O)N[C@H]1CSSC[C@@H](C(=O)NCC(=O)O)NC(=O)[C@H](C)NC(=O)[C@H](CC(N)=O)NC(=O)[C@H](CCCNC(=N)N)NC(=O)CNC(=O)[C@H]([C@@H](C)O)NC(=O)[C@H](CO)NC(=O)[C@H]([C@@H](C)O)NC1=O [SP7-4, ACTSTGRNACG] (H-ACTSTGRNACG-OH; disulfide 2-10; N-terminus and C-terminus assumed)
Skin permeation, Dermis [2, 7]: 53.7 ± 31.1 μg/cm^2
Skin permeation, Receptor [2, 7]: 19.8 ± 19.8 μg/cm^2
Skin permeation, SC + Epidermis [2, 7]: 545.2 ± 79.1 μg/cm^2
solubility in PBS [3]: did not give any solubility problems
toxicity to HEKa cells [1]: significantly toxic (p <0.001) at only 1 mg/mL

Molecule: C[C@H](N)C(=O)N[C@H]1CSSC[C@@H](C(=O)NCC(=O)O)NC(=O)[C@H](CC(N)=O)NC(=O)[C@H](Cc2c[nH]cn2)NC(=O)[C@H](CC(N)=O)NC(=O)[C@H]([C@@H](C)O)NC(=O)[C@H](CO)NC(=O)[C@H](C)NC(=O)[C@H](CO)NC1=O [SP7-5, ACSASTNHNCG] (H-ACSASTNHNCG-OH; disulfide 2-10; N-terminus and C-terminus assumed)
Skin permeation, Dermis [2, 7]: 124.3 ± 28.2 μg/cm^2
Skin permeation, Receptor [2, 7]: 39.5 ± 8.5 μg/cm^2
Skin permeation, SC + Epidermis [2, 7]: 759.9 ± 62.1 μg/cm^2
solubility in PBS [3]: did not give any solubility problems
toxicity to HEKa cells [1]: significantly toxic (p <0.001) at only 1 mg/mL
viability at 5000 µg/mL [4]: 60.1 ± 2.6%

Skin permeation, Dermis [2]: 200.6 ± 59.3 μg/cm^2
Skin permeation, Receptor [2]: 96.0 ± 31.1 μg/cm^2
Skin permeation, SC + Epidermis [2]: 782.5 ± 84.7 μg/cm^2
Molecule: C[C@H](N)C(=O)N[C@H]1CSSC[C@@H](C(=O)NCC(=O)O)NC(=O)[C@H](CCC(N)=O)NC(=O)[C@H](Cc2c[nH]cn2)NC(=O)[C@H](CCC(N)=O)NC(=O)[C@H]([C@@H](C)O)NC(=O)[C@H](CO)NC(=O)CNC(=O)[C@H]([C@@H](C)O)NC1=O [SPACE™, ACTGSTQHQCG, reference compound] (H-ACTGSTQHQCG-OH; disulfide 2-10; N-terminus and C-terminus assumed)
viability at 5000 µg/mL [4]: 99.4 ± 3.9%

Molecule: CC(C)C[C@@H]1NC(=O)[C@H](CO)NC(=O)[C@@H](NC(=O)[C@H](C)N)CSSC[C@@H](C(=O)NCC(=O)O)NC(=O)[C@H](CC(N)=O)NC(=O)[C@H](Cc2c[nH]c3ccccc23)NC(=O)[C@H](CC(N)=O)NC(=O)[C@H](C(C)C)NC(=O)[C@H]([C@@H](C)O)NC1=O [SP7-2, ACSLTVNWNCG] (H-ACSLTVNWNCG-OH; disulfide 2-10; N-terminus and C-terminus assumed)
Skin permeation, Dermis [2, 7]: 166.7 ± 45.2 μg/cm^2
Skin permeation, Receptor [2, 7]: 65.0 ± 14.1 μg/cm^2
Skin permeation, SC + Epidermis [2, 7]: 774.0 ± 110.2 μg/cm^2
solubility in PBS [3]: did not give any solubility problems
toxicity to HEKa cells ([1]; listed as SP-2): some toxicity for all concentrations tested, however, the results were not statistically significant

Molecule: CC(C)C[C@@H]1NC(=O)[C@H]([C@@H](C)O)NC(=O)[C@H](C)NC(=O)[C@H](CO)NC(=O)[C@@H](NC(=O)[C@H](C)N)CSSC[C@@H](C(=O)NCC(=O)O)NC(=O)[C@H](CO)NC(=O)[C@H](Cc2c[nH]cn2)NC(=O)[C@H](CCC(N)=O)NC1=O [SP7-1, ACSATLQHSCG] (H-ACSATLQHSCG-OH; disulfide 2-10; N-terminus and C-terminus assumed)
Skin permeation, Dermis [2, 7]: 149.7 ± 5.6 μg/cm^2
Skin permeation, Receptor [2, 7]: 42.4 ± 8.5 μg/cm^2
Skin permeation, SC + Epidermis [2, 7]: 819.2 ± 62.2 μg/cm^2
pH adjusted to achieve complete solubility ([3]; PBS): 8.5
toxicity to HEKa cells [1]: only toxic when at 10 mg/mL

Kd [5]: 393 µg/mL
Experimental Qmax [6]: 4.09 mg/mL resin
Kd [6]: 8.73 µM
B1: SP7-2 (…) (peptide)
peptide: ACSLTVNWNCG
modifications: disulfide 2-10 (inferred)

Kd [5]: 477 µg/mL
Experimental Qmax [6]: 3.98 mg/mL resin
Kd [6]: 10.6 µM
B2: SPACE™ peptide (…) (peptide)
peptide: ACTGSTQHQCG
modifications: disulfide 2-10 (inferred)

Kd [5]: 716 µg/mL
Experimental Qmax [6]: 3.43 mg/mL resin
Kd [6]: 15.8 µM
B3: SP7-4 (…) (peptide)
peptide: ACTSTGRNACG
modifications: disulfide 2-10 (inferred)

Kd [5]: 423 µg/mL
Experimental Qmax [6]: 4.07 mg/mL resin
Kd [6]: 9.4 µM
B4: SP7-3 (…) (peptide)
peptide: ACLSVNHNACG
modifications: disulfide 2-10 (inferred)

Kd [5]: 361 µg/mL
Experimental Qmax [6]: 4.16 mg/mL resin
Kd [6]: 8.02 µM
B5: SP7-1 (…) (peptide)
peptide: ACSATLQHSCG
modifications: disulfide 2-10 (inferred)

Kd [5]: 456 µg/mL
Experimental Qmax [6]: 4.01 mg/mL resin
Kd [6]: 10.1 µM
B6: SP7-5 (…) (peptide)
peptide: ACSASTNHNCG
modifications: disulfide 2-10 (inferred)
